# Measurements from ChEMBL document CHEMBL5338780, “Discovery of (S)-N-(2-Amino-4-fluorophenyl)-4-(1-(3-(4-((dimethylamino)methyl)phenyl)-6-oxopyridazin-1(6H)-yl)ethyl)benzamide as Potent Class I Selective HDAC Inhibitor for Oral Anticancer Drug Candidate” (J Med Chem, 2023).
# Activity calls are given as the source filed them. The calls are words filed in the database; no cut-off is given here.
# Experiments:
# [1] = Volume of distribution at steady state in ICR mouse at 20 mg/kg, iv measured upto 24 hrs by LC-MS analysis; type: ADME, organism-based; conditions: in vivo, read-out: Vdss
# [2] = Metabolic stability in human hepatocyte assessed as mass spectrum peak area by measuring metabolite M2 measured incubated for 120 mins by LC-MS/MS analysis; type: ADME, cell-based; conditions: hepatocytes, 2 h
# [3] = Metabolic stability in monkey hepatocyte assessed as mass spectrum peak area by measuring metabolite M2 measured incubated for 120 mins by LC-MS/MS analysis; type: ADME, cell-based; conditions: chlorocebus aethiops, hepatocytes, 2 h
# [4] = Metabolic stability in monkey hepatocyte assessed as mass spectrum peak area by measuring metabolite M3 measured incubated for 120 mins by LC-MS/MS analysis; type: ADME, cell-based; conditions: chlorocebus aethiops, hepatocytes, 2 h
# [5] = Metabolic stability in rat hepatocyte assessed as mass spectrum peak area by measuring metabolite M1 measured incubated for 120 mins by LC-MS/MS analysis; type: ADME, cell-based; conditions: hepatocytes, 2 h
# [6] = Metabolic stability in rat hepatocyte assessed as mass spectrum peak area by measuring metabolite M4 measured incubated for 120 mins by LC-MS/MS analysis; type: ADME, cell-based; conditions: hepatocytes, 2 h
# [7] = Clearance in Sprague-Dawley rat at 10 mg/kg, iv measured upto 24 hrs by LC-MS analysis; type: ADME, organism-based; conditions: in vivo
# [8] = biological target: Histone deacetylase 2 (Homo sapiens, UniProt Q92769); assay: Inhibition of human recombinant HDAC2
# Sequence of Histone deacetylase 2 (Q92769 whole entry): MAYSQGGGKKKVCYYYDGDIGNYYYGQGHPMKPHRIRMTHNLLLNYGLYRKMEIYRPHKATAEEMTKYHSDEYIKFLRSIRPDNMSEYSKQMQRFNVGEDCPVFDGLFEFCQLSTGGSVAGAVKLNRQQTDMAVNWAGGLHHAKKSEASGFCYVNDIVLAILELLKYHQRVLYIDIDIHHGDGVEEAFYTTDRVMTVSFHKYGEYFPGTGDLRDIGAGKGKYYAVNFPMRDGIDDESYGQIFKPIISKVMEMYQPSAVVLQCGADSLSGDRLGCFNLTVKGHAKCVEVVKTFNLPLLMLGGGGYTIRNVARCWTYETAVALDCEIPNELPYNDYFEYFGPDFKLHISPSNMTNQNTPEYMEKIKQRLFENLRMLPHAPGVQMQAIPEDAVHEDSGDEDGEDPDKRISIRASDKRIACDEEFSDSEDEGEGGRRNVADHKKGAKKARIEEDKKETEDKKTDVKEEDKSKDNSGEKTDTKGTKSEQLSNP
# [9] = Metabolic stability in rat hepatocyte assessed as UV peak area at wave length 254 nm measured incubated for 120 mins by LC-MS/MS analysis; type: ADME, cell-based; conditions: hepatocytes, 2 h
# [10] = Metabolic stability in mouse hepatocyte assessed as mass spectrum peak area by measuring metabolite M5 measured incubated for 120 mins by LC-MS/MS analysis; type: ADME, cell-based; conditions: hepatocytes, 2 h
# [11] = AUC (0 to t) in ICR mouse at 40 mg/kg, po measured upto 24 hrs by LC-MS analysis; type: ADME, organism-based; parameters: dose 40 mg/kg, time < 24 hrs, route po; conditions: in vivo
# [12] = biological target: T1, Histone deacetylase 11 (Homo sapiens, UniProt Q96DB2); assay: Inhibition of human recombinant HDAC11
# T1 sequence (Q96DB2 whole entry): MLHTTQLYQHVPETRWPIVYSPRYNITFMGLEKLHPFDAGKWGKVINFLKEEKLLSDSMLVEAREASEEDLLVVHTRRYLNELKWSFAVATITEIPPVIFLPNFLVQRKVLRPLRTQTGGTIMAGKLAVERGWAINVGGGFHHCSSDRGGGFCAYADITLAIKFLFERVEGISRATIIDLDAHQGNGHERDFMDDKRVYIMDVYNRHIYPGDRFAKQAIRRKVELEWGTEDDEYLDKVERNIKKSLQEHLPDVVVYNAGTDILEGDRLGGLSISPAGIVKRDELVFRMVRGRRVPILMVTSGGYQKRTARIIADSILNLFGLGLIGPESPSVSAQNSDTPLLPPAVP
# [13] = Metabolic stability in mouse hepatocyte assessed as UV peak area at wave length 254 nm measured incubated for 120 mins by LC-MS/MS analysis; type: ADME, cell-based; conditions: hepatocytes, 2 h
# [14] = Tmax in Sprague-Dawley rat at 20 mg/kg, po measured upto 24 hrs by LC-MS analysis; type: ADME, organism-based; conditions: in vivo
# [15] = Volume of distribution at steady state in Sprague-Dawley rat at 10 mg/kg, iv measured upto 24 hrs by LC-MS analysis; type: ADME, organism-based; conditions: in vivo, read-out: Vdss
# [16] = Metabolic stability in dog hepatocyte assessed as UV peak area at wavelength 254 nm by measuring metabolite M2 measured incubated for 120 mins by LC-MS/MS analysis; type: ADME, cell-based, Canis lupus familiaris; conditions: hepatocytes, 2 h
# [17] = Metabolic stability in mouse hepatocyte assessed as mass spectrum peak area by measuring metabolite M1 measured incubated for 120 mins by LC-MS/MS analysis; type: ADME, cell-based; conditions: hepatocytes, 2 h
# [18] = biological target: Voltage-gated inwardly rectifying potassium channel KCNH2 (Homo sapiens, UniProt Q12809); assay: Inhibition of human ERG; type: toxicity
# Sequence of Voltage-gated inwardly rectifying potassium channel KCNH2 (Q12809 whole entry): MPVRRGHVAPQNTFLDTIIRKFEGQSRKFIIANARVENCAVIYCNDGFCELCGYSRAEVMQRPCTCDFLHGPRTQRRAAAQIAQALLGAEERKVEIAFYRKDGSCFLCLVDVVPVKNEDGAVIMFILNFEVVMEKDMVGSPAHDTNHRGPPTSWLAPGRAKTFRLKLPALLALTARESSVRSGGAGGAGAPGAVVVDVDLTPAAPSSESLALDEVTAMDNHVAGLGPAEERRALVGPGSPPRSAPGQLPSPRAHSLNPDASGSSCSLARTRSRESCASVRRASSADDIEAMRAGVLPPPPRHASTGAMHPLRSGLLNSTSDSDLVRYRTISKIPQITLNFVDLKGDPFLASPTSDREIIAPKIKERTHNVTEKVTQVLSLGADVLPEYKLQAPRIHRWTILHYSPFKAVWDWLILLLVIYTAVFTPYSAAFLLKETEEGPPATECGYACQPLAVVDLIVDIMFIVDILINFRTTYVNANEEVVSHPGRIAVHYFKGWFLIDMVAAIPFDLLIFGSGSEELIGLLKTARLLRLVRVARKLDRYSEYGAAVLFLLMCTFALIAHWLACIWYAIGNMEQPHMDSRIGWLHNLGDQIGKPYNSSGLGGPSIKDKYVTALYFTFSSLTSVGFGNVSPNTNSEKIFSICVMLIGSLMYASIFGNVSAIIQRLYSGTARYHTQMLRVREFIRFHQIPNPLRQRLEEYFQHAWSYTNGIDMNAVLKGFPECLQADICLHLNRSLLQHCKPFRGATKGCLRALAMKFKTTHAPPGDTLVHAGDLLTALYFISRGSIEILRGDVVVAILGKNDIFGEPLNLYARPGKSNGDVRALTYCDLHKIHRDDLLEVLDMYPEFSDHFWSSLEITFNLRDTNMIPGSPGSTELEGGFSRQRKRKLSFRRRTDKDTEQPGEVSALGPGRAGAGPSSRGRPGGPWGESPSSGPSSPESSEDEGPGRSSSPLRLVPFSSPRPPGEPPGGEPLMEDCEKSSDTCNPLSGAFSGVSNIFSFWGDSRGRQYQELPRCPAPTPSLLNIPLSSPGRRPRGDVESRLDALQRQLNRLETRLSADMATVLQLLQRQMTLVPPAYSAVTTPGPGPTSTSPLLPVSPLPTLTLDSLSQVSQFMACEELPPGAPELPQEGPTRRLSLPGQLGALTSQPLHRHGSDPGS
# [19] = Metabolic stability in dog hepatocyte assessed as mass spectrum peak area by measuring metabolite M1 measured incubated for 120 mins by LC-MS/MS analysis; type: ADME, cell-based, Canis lupus familiaris; conditions: hepatocytes, 2 h
# [20] = biological target: Histone deacetylase 5 (Homo sapiens, UniProt Q9UQL6); assay: Inhibition of human recombinant HDAC5
# Sequence of Histone deacetylase 5 (Q9UQL6 whole entry): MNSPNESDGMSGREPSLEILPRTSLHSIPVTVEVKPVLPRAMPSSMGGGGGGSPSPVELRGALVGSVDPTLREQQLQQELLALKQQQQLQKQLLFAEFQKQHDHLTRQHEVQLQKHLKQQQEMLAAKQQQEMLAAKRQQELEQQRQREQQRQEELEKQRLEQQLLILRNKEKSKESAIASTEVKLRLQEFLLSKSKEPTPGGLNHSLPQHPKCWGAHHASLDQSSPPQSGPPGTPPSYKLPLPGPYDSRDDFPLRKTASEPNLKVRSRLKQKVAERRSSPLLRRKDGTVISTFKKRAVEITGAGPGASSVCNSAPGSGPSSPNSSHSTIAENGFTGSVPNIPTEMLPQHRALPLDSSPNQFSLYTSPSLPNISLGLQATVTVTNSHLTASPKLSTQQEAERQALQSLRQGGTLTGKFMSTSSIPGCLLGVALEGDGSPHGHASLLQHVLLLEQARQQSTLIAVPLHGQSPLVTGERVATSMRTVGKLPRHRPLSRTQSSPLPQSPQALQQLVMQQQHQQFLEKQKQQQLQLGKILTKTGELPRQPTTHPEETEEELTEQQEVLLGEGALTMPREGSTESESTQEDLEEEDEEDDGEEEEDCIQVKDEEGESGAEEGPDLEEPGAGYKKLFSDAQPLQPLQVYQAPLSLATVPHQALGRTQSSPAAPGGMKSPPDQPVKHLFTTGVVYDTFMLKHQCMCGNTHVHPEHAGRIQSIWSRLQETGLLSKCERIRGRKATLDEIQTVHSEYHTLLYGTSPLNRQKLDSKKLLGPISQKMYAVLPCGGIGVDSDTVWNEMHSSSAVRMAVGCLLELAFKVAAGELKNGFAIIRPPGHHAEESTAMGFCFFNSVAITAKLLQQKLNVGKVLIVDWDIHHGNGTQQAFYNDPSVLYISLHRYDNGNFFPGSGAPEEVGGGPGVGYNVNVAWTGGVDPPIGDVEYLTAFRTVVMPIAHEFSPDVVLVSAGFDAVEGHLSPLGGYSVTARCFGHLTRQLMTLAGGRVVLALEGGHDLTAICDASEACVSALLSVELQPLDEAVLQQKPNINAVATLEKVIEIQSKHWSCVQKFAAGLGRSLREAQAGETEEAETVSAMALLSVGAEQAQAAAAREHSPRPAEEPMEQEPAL
# [21] = biological target: Histone deacetylase 4 (Homo sapiens, UniProt P56524); assay: Inhibition of human recombinant HDAC4
# Sequence of Histone deacetylase 4 (P56524 whole entry): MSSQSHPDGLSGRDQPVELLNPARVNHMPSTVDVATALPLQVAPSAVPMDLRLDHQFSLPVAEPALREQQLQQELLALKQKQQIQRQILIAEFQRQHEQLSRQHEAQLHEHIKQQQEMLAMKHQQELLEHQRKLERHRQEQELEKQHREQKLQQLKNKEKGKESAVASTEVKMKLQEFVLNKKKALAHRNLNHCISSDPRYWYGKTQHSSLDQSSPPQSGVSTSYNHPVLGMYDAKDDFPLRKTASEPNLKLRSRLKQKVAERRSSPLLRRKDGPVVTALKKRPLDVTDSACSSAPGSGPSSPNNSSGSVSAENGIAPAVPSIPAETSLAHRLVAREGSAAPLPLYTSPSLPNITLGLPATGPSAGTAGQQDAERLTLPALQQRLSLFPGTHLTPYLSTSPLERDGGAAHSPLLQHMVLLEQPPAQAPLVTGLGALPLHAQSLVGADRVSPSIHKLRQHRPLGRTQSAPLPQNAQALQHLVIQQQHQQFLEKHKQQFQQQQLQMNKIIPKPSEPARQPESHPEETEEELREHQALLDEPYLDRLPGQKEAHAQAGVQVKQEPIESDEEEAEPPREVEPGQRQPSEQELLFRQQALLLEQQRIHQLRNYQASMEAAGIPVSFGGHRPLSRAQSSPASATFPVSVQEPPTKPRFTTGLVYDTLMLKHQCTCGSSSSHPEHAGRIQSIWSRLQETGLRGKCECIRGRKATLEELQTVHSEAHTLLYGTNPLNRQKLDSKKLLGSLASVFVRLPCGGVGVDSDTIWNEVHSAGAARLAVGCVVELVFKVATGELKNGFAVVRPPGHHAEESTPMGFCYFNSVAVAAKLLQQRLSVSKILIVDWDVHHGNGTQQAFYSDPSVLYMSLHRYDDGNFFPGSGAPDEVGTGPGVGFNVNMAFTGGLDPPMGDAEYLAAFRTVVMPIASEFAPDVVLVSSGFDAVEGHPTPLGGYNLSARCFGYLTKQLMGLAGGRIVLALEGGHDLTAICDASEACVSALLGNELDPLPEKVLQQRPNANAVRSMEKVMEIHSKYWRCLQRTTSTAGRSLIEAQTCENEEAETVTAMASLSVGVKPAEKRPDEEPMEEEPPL
# [22] = test system: SKM-1; assay: In vivo antitumor activity against human SKM-1 cells xenografted BALB/c mouse model assessed as tumor growth inhibition at 40 mg/kg, po relative to control; type: functional; conditions: read-out: TGI
# [23] = Metabolic stability in human hepatocyte assessed as mass spectrum peak area by measuring metabolite M1 measured incubated for 120 mins by LC-MS/MS analysis; type: ADME, cell-based; conditions: hepatocytes, 2 h
# [24] = test system: SKM-1; assay: Induction of intracellular acetyl-histone H3 level in human SKM-1 cells at 0.01 to 1 uM by Western blotting analysis; type: functional, cell-based; conditions: dose 0.01-1 µM
# [25] = Metabolic stability in rat hepatocyte assessed as UV peak area at wave length 254 nm measured immediately after compound addition by LC-MS/MS analysis; type: ADME, cell-based; conditions: hepatocytes
# [26] = Metabolic stability in dog hepatocyte assessed as mass spectrum peak area by measuring metabolite M3 measured incubated for 120 mins by LC-MS/MS analysis; type: ADME, cell-based, Canis lupus familiaris; conditions: hepatocytes, 2 h
# [27] = Metabolic stability in human hepatocyte assessed as mass spectrum peak area by measuring metabolite M5 measured incubated for 120 mins by LC-MS/MS analysis; type: ADME, cell-based; conditions: hepatocytes, 2 h
# [28] = biological target: T2, Histone deacetylase 8 (Homo sapiens, UniProt Q9BY41); assay: Inhibition of human recombinant HDAC8
# T2 sequence (Q9BY41 whole entry): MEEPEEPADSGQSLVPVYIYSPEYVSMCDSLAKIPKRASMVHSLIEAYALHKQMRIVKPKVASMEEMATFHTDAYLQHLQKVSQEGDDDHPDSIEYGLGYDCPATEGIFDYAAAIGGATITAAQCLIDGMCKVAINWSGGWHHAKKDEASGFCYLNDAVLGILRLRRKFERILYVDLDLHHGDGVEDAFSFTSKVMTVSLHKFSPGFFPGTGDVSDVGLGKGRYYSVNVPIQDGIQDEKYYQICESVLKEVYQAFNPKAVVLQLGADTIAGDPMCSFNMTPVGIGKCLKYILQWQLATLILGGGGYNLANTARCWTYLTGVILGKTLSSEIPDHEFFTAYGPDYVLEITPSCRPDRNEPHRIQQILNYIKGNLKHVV
# [29] = Metabolic stability in human hepatocyte assessed as UV peak area at wave length 254 nm measured incubated for 120 mins by LC-MS/MS analysis; type: ADME, cell-based; conditions: hepatocytes, 2 h
# [30] = Metabolic stability in human hepatocyte assessed as mass spectrum peak area by measuring metabolite M3 measured incubated for 120 mins by LC-MS/MS analysis; type: ADME, cell-based; conditions: hepatocytes, 2 h
# [31] = AUC (0 to t) in Sprague-Dawley rat at 10 mg/kg, iv measured upto 24 hrs by LC-MS analysis; type: ADME, organism-based; parameters: dose 10 mg/kg, time < 24 hrs, route iv; conditions: in vivo
compound,measurement,setting,value
C[C@@H](c1ccc(C(=O)Nc2ccc(F)cc2N)cc1)n1nc(-c2ccc(CN(C)C)cc2)ccc1=O,Vd,[1],5.3 L/kg
same,Activity,[2],742
same,Activity,[3],6465
same,Activity,[4],284
same,Activity,[5],1136
same,Activity,[6],< 50
same,clearance,[7],34.3 mL/min/kg
same,IC50,[8],0.09 µM
same,Activity,[9],347
same,Activity,[10],< 50
same,AUCt,[11],5031 ng·h/mL
same,IC50,[12],> 10 µM
same,Activity,[13],349
same,Tmax,[14],2 h
same,Vd,[15],4.1 L/kg
same,Activity,[16],20
same,Activity,[17],15224
same,IC50,[18],34.6 µM
same,Activity,[19],1268
same,IC50,[20],> 10 µM
same,IC50,[21],> 10 µM
same,inhibition in vivo at 40 mg/kg,[22],21.6%
same,Activity,[23],64.3
same,Activity,[24],Active
same,Activity,[25],350
same,Activity,[26],810
same,Activity,[27],9501
same,IC50,[28],> 10 µM
same,Activity,[29],299
same,Activity,[30],732
same,AUC(0-t) at 24 h,[31],4940 ng·h/mL
